Usually IC50 stands for the concentration at which inhibition is half-maximal. Read a low IC50 as greater potency.

For the test, the system named is HCT-116. Put plainly: Cytotoxicity against human HCT116 cells. It counts as functional, cell-based.
As for `C[C@H]1C[C@@](C)(CCCCCCCCCCCCc2ccccc2)OC1=O` (relative stereo), the IC50 was determined as 14.5 µM.
Then `CN(C)CCc1nccc2c1[nH]c1cc(Br)ccc12` [PLAKORTAMINE A], with 3.2 µM.
`C=Cc1nccc2c1[nH]c1cc(Br)ccc12` [PLAKORTAMINE B]: the IC50 came to 0.62 µM.
The compound `CN(CCc1nccc2c1[nH]c1cc(Br)ccc12)CCc1nccc2c1[nH]c1cc(Br)ccc12` [PLAKORTAMINE C] gave a concentration for half-maximal inhibition (IC50) of 2.15 µM.
Take `CN1CCC(c2nccc3c2[nH]c2cc(Br)ccc23)O1` (stereo not given) [PLAKORTAMINE D]: the half-maximal inhibitory concentration (IC50) worked out at 15 µM.

The record behind these values is ChEMBL document CHEMBL1150628, “Cytotoxic beta-carbolines and cyclic peroxides from the Palauan sponge Plakortis nigra” (J Nat Prod, 2002).
